Drawing on PMC5653977 (EMBO Molecular Medicine, 2017), this text covers Z-SCORE for 48 compounds.

Where a name gives a salt, the structure may show the parent alone.

The first assay relates to NRG1-ERBB4 signaling. Put plainly: Nrg1-ERBB4-PIK3R1 split TEV co-culture compound screen of the NIH Clinical Collection.
Conditions: not given
The class given is cell-based, human. The source says: For our HTS‐compatible split TEV assay approach, human full‐length ERBB4‐Cyt1 was fused to the NTEV fragment, a TEV protease cleavage site (tevS) and the artificial co‐transcriptional activator Gal4‐VP16 (ERBB4‐NTEV‐tevS‐GV); human PIK3R1 was fused to the CTEV fragment (PIK3R1‐CTEV) (Fig 1A). Upon ERBB4 activation, PIK3R1 is recruited to the receptor resulting in a reconstituted protease activity that cleaves off GV. In turn, released GV translocates to the nucleus and binds to upstream activating sequences (UAS) to activate the transcription of a firefly luciferase reporter gene (Fig 1A). A constitutively expressed Renilla luciferase driven under the control of the human thymidine kinase (TK) promoter was used as control to address off‐target effects related to toxicity.
For small molecule screening, the NIH‐NCC Clinical Collection library (sets NCC‐003 and NCC‐201) was used containing 727 small molecules that are FDA‐approved and have a history in clinical applications (www.nihclinicalcollection.com). A Hamilton Labstar robot connected to 37 and 4°C incubators for cell incubation and compound storage and application (Cytomat automated incubator, ThermoScientific) and to a luciferase reader (Berthold Technologies) was used to automatically perform the screening. […] Each batch was screened three times.
For one 96‐well plate, 4 × 10^6 PC12 cells were harvested and diluted in 5 ml assay medium (phenol red‐free DMEM (low glucose, Life Technologies), 10% FCS, 5% HS, no antibiotics). The split TEV assay plasmids (2 μg pcDNA3_ERBB4‐NTEV‐tevS‐GV‐2xHA, 2 μg pTag4C_PIK3R1‐CTEV‐2xHA, 2 μg p5xUAS_firefly luciferase, 2 μg pTK_Renilla luciferase, and 0.5 μg pECFP‐C1 for examining transfection efficiency) were diluted in 2.5 ml Opti‐MEM (Life Technologies) and vortexed. In parallel, 20 μl of the transfection reagent Lipofectamine 2000 was diluted in 2.5 ml Opti‐MEM and vortexed.
For plating of one 96‐well plate, 10 ml suspension, containing the 4 × 10^6 in solution‐transfected cells, was placed in the bubble paddle reservoir of the Hamilton Cellstar robot. 100 μl was seeded per 96‐well using the 96‐tip pipetting head. The homogeneity of the cell suspension was guaranteed over time by mild stirring using the paddling device inside the reservoir. For five plates each, 50 ml of additional cell suspension was used to allow for losses of inaccessible volume.
The cells were allowed to express the plasmids for 24 h before compounds were added. Proper expression and transfection efficiency were verified by ECFP expression on a clear control plate. The compounds were applied in a final concentration of 10 μM using DMSO as diluent. […] Thirty minutes later, 10,000 Nrg1‐expressing PC12 cells in 100 μl assay medium were seeded on top. 24 h after addition of the compounds, the cells were lysed using 40 μl Passive Lysis buffer (Promega) and subjected to a Dual Luciferase Assay (Promega) according to the manufacturer's instructions. The data were analyzed in R Bioconductor using the package cellHTS2 (http://www.bioconductor.org/packages/devel/bioc/html/cellHTS2.html), assessed using the z‐score, and visualized using the program Mondrian (http://stats.math.uni-augsburg.de/mondrian/).
The compound `CN1C(=O)CN=C(c2ccccc2)c2cc(Cl)ccc21` [Diazepam] registered a Z-SCORE of -1.79.

The same assay, now with this note: NIH Clinical Collection NCC-003 raw data; compounds ranked by Z-score; 'flagged' given instead of a Z-score.
Turning to `CC(C)C[C@H](NC(=O)[C@@H](COC(C)(C)C)NC(=O)[C@H](Cc1ccc(O)cc1)NC(=O)[C@H](CO)NC(=O)[C@H](Cc1c[nH]c2ccccc12)NC(=O)[C@H](Cc1cnc[nH]1)NC(=O)[C@@H]1CCC(=O)N1)C(=O)N[C@@H](CCCNC(=N)N)C(=O)N1CCC[C@H]1C(=O)NNC(N)=O` [GOSERELIN ACETATE], the Z-SCORE is recorded as -1.23.

For the compound `CCOC(=O)[C@H](CCc1ccccc1)N[C@@H](C)C(=O)N1[C@H](C(=O)O)C[C@@H]2CCC[C@@H]21` [reference compound], the Z-SCORE is on record as -1.41.

In turn, `CN1CCN(C2=Nc3ccccc3Oc3ccc(Cl)cc32)CC1` [Loxapine succinate] gave a Z-SCORE of -1.14.

`CC[C@]1(O)C[C@H]2CN(CCc3c([nH]c4ccccc34)[C@@](C(=O)OC)(c3cc4c(cc3OC)N(C=O)[C@H]3[C@@](O)(C(=O)OC)[C@H](OC(C)=O)[C@]5(CC)C=CCN6CC[C@]43[C@@H]65)C2)C1` [VINCRISTINE SULFATE]: the Z-SCORE result was “flagged”.

For `OCCOCCN1CCN(C2=Nc3ccccc3Sc3ccccc32)CC1` [QUETIAPINE HEMIFUMARATE], the Z-SCORE is -1.26.

The assay is the same for the next values; noted with them: compound screen of the NIH Clinical Collection, sheet raw data NCC-003; compounds ranked by Z-score.
Compound `CO[C@@H]1[C@@H](O[C@@H]2O[C@H](C)[C@@H](O[C@H]3C[C@@](C)(O)[C@@H](OC(=O)CC(C)C)[C@H](C)O3)[C@H](N(C)C)[C@H]2O)[C@@H](CC=O)C[C@@H](C)[C@@H](O)/C=C/C=C/C[C@@H](C)OC(=O)C[C@H]1O` [KITASAMYCIN] came in with a Z-SCORE of 1.6.

`CN1C(=O)COc2c(C(=O)NC3CN4CCC3CC4)cc(Cl)cc21` (stereo not shown) [Azasetron]: the Z-SCORE turned out to be 0.46.

`CC(O)(CS(=O)(=O)c1ccc(F)cc1)C(=O)Nc1ccc(C#N)c(C(F)(F)F)c1` (stereo not shown) [BICALUTAMIDE] displayed a Z-SCORE of 0.

Consider `C[C@H]1COc2c(N3CCN(C)CC3)c(F)cc3c(=O)c(C(=O)O)cn1c23` [LEVOFLOXACIN], for which the Z-SCORE is reported as -0.28.

For the compound `CC(N/C(=N\C#N)Nc1ccncc1)C(C)(C)C` (stereo not shown) [Pinacidil monohydrate], the Z-SCORE is 0.85.

Consider `C[C@@H]1C[C@H]2[C@@H]3C[C@H](F)C4=CC(=O)C(Cl)=C[C@]4(C)[C@@]3(F)[C@@H](O)C[C@]2(C)[C@@]1(O)C(=O)CO.O` [HALOMETASONE MONOHYDRATE], for which the Z-SCORE was -0.25.

The compound `Cl.O=C(O)/C=C/c1ccc(Cn2ccnc2)cc1` [Ozagrel hydrochloride] returned a Z-SCORE of 0.36.

`CC1(C)O[C@@H]2[C@@H](CO[C@@]3(COS(N)(=O)=O)OC(C)(C)O[C@@H]23)O1` [TOPIRAMATE] yielded a Z-SCORE of 0.63.

Consider `CN1[C@@H](CC(=O)c2ccccc2)CCC[C@H]1C[C@H](O)c1ccccc1` [LOBELINE HYDROCHLORIDE], for which the Z-SCORE turned out to be 0.14.

`Nc1ccc2cn[nH]c2c1` [6-AMINOINDAZOLE] registered a Z-SCORE of 0.45.

The compound `N[C@@H](C(=O)N[C@@H]1C(=O)N2C(C(=O)O)=C(Cl)CS[C@H]12)c1ccccc1` [CEFACLOR] registered a Z-SCORE of -0.62.

In turn, `CS(=O)(=O)O.O=C(O[C@H]1C[C@H]2CC3C[C@@H](C1)N2CC3=O)c1c[nH]c2ccccc12` [DOLASETRON MESYLATE] returned a Z-SCORE of 0.23.

On to `CC(C)Oc1ccc2c(=O)c(-c3ccccc3)coc2c1` [IPRIFLAVONE], for which the Z-SCORE came out at 1.41.

For the compound `c1cncc([C@@H]2CCCN2)c1` [Nornicotine], the Z-SCORE stood at 0.27.

Compound `COc1cc(CNC(=O)CCCC/C=C/C(C)C)ccc1O` [Capsaicin] showed a Z-SCORE of -0.46.

On to `CC(C)(C)NC(=O)[C@@H]1CN(Cc2cccnc2)CCN1C[C@@H](O)C[C@@H](Cc1ccccc1)C(=O)N[C@H]1c2ccccc2C[C@H]1O` [INDINAVIR SULPHATE], for which the Z-SCORE is 0.35.

`O=C1Nc2ccc(Cl)cc2C(c2ccccc2Cl)=NC1O` (stereo not shown) [Lorazepam] yielded a Z-SCORE of 0.53.

As to `Clc1ccc2c(c1)CCc1cccnc1C2=C1CCNCC1`, the Z-SCORE amounted to 0.4.

Take `C=CC1=C(C(=O)O)N2C(=O)[C@@H](NC(=O)/C(=N\O)c3csc(N)n3)[C@H]2SC1`: the Z-SCORE was 0.68.

As for `CNC1=Nc2ccc(Cl)cc2C(c2ccccc2)=[N+]([O-])C1` [CHLORDIAZEPOXIDE], the Z-SCORE is 0.41.

Regarding `COc1cc2nc(N(C)CCCNC(=O)C3CCCO3)nc(N)c2cc1OC` (stereo not shown) [ALFUZOSIN], the Z-SCORE worked out at 0.03.

The compound `O=C(CCCN1CC=C(n2c(=O)[nH]c3ccccc32)CC1)c1ccc(F)cc1` [DROPERIDOL] gave a Z-SCORE of -0.96.

For `COc1ccc2[n-]c([S+]([O-])Cc3ncc(C)c(OC)c3C)nc2c1.COc1ccc2[n-]c([S+]([O-])Cc3ncc(C)c(OC)c3C)nc2c1.[Mg+2]` (stereo not shown) [ESOMEPRAZOLE Mg], the Z-SCORE is 0.45.

Regarding `CC(C)OC(=O)CCC/C=C\C[C@@H]1[C@@H](CC[C@@H](O)CCc2ccccc2)[C@H](O)C[C@@H]1O` [LATANOPROST], the Z-SCORE is -0.3.

`Nc1nc2ccc(OC(F)(F)F)cc2s1` [Riluzole] showed a Z-SCORE of -0.53.

For `CC(=O)Oc1ccccc1C(=O)Nc1ncc([N+](=O)[O-])s1` [NITAZOXANIDE], the Z-SCORE was 1.04.

The compound `Cc1ncc([N+](=O)[O-])n1CC(C)O` (stereo not shown) had a Z-SCORE of 1.35.

As for `NC(=NCc1ccc(Cl)cc1)SCCCc1cnc[nH]1` [Clobenpropit], the Z-SCORE is -0.9.

The same assay, now with this note: compounds at 10 μM, 24 h; PC12 split TEV assay cells co-cultured with Nrg1-expressing PC12 cells; analysed with cellHTS2.
In the case of `CO[C@@]1(NC(=O)Cc2cccs2)C(=O)N2C(C(=O)O)=C(COC(N)=O)CS[C@@H]21` [CEFOXITIN SODIUM SALT, reference compound], the Z-SCORE was determined as 2.55.

The compound `CO/N=C(\C(=O)N[C@@H]1C(=O)N2C(C(=O)O)=C(COC(C)=O)CS[C@H]12)c1csc(N)n1` [CEFOTAXIME SODIUM SALT, reference compound] displayed a Z-SCORE of -0.2.

Compound `CC1(C)S[C@@H]2[C@H](NC(=O)[C@H](N)c3ccc(O)cc3)C(=O)N2[C@H]1C(=O)O` [AMOXICILLIN CRYSTALLINE, reference compound] returned a Z-SCORE of -1.06.

`C#C[C@]1(OC(C)=O)CC[C@H]2[C@@H]3CCC4=CC(=O)CC[C@@H]4[C@H]3CC[C@@]21C` [19-NORETHINDRONE ACETATE, reference compound] showed a Z-SCORE of -0.99.

As for `CC(N)C12CC3CC(CC(C3)C1)C2` (stereo not shown) [Flumadine, reference compound], the Z-SCORE is listed as -0.97.

In turn, `C[C@H]1c2cccc(O)c2C(=O)C2=C(O)[C@]3(O)C(=O)C(C(N)=O)=C(O)[C@@H](N(C)C)[C@@H]3[C@@H](O)[C@@H]21` [DOXYCYCLINE, reference compound] returned a Z-SCORE of -0.93.

The compound `C[C@]12C=CC(=O)C=C1CC[C@@H]1[C@@H]2C(=O)C[C@@]2(C)[C@H]1CC[C@]2(O)C(=O)CO` [Prednisone, reference compound] displayed a Z-SCORE of -0.15.

Regarding `O=C(C1CCCCC1)N1CC(=O)N2CCc3ccccc3C2C1` (stereo not shown) [PRAZIQUANTEL, reference compound], the Z-SCORE came out at 0.38.

`CC(C)(C)NCC(O)COc1cccc2c1CC(O)C(O)C2` (stereo not shown) [NADOLOL, reference compound] gave a Z-SCORE of 0.1.

`CN1CCC[C@H]1c1cccnc1` [NICOTINE, reference compound]: the Z-SCORE is recorded as -0.12.

Take `CC1=C(/C=C/C(C)=C/C=C/C(C)=C\C(=O)O)C(C)(C)CCC1` [Isotretinoin, reference compound]: the Z-SCORE is -0.41.

`CCOC(=O)[C@H](CCc1ccccc1)N[C@@H](C)C(=O)N1[C@H](C(=O)O)C[C@@H]2CCC[C@@H]21` [reference compound] yielded a Z-SCORE of 4.3.

`CCCC1O[C@@H]2C[C@H]3[C@@H]4CCC5=CC(=O)C=C[C@]5(C)[C@H]4[C@@H](O)C[C@]3(C)[C@]2(C(=O)CO)O1` (stereo partly shown) [BUDESONIDE, reference compound]: the Z-SCORE was -0.46.

As to `CSc1ccc2c(c1)N(CCC1CCCCN1C)c1ccccc1S2` (stereo not shown) [THIORIDAZINE HYDROCHLORIDE, reference compound], the Z-SCORE result is “flagged”.

`O=C(O)c1cccnc1` [Nicotinic Acid, reference compound] came in with a Z-SCORE of -0.31.
